The test system of series [1] is Human cytomegalovirus (HCMV), CMV strain AD 169. Briefly: CMV assay (plaque reduction assay, MRC5 cells). It counts as cell-based. The conditions noted are these: Human betaherpesvirus 5, HCMV strain AD 169. The protocol:
Human cytomegalovirus (HCMV) was assayed in monolayers of either MRC5 cells (human embryonic lung) in multiwell trays. The strandard CMV strain AD 169 was used. Activity of compounds is determined in the plaque reduction assay, in which a cell monolayer is infected with a suspension of HCMV, and then overlaid with nutrient […] in the form of a gel to ensure that there is no spread of virus throughout the culture. A range of concentrations of compound of known molarity was incorporated in the nutrient agarose overlay. Plaque numbers at each concentration of drug are expressed as percentage of the control and a dose-response curve is drawn.
On the technique in general: Plaques are areas of infected cells; plaque reduction assays count them against a control.

Series [2] in a line: Cell toxicity (cell growth inhibition assay, MTT uptake). Format: cell-based. As to conditions: monkey, 50% inhibition of cell viability at 96 hours, Vero cells, read-out: Cytoxicity CClD50. The procedure:
Cell toxicity is assessed in cell growth inhibition assay. Subconfluent cultures of Vero cells grown on 96-well microtiter dishes are exposed to different dilutions of drug, and cell viability determined daily on replicate cultures using uptake of a tetrazolium dye (MTT). The concentration required for 50% inhibition of cell viability at 96 hours is termed CCID50.

`O=C1NC(=O)c2c1c1c3cc(Cl)ccc3[nH]c1c1[nH]c3ccc(Cl)cc3c21` [12,13-Dihydro-3,9-dichloro-5H-indolo[2,3-a]pyrrolo[3,4-c]carbazole-5,7(6H)-dione] had a 50% inhibitory concentration (IC50) in series [1] of 0.16 µM. The CC50 at 96 h in series [2] was above 125 µM.
In the same order, the values of `O=C1c2c(c3c4ccccc4[nH]c3c3[nH]c4ccccc4c23)C(=O)N1Cc1cc(C(F)(F)F)cc(C(F)(F)F)c1` [12,13-Dihydro-6-(3,5-di-trifluoromethylphenylmethyl)-5H-indolo [2,3a]pyrrolo[3,4c]carbazole-5,7(6H)-dione] are 5.7 µM and above 125 µM.
The molecule `O=C1c2c(c3c4ccccc4[nH]c3c3[nH]c4ccccc4c23)C(=O)N1Cc1cccc(C(F)(F)F)c1` [12,13-Dihydro-6-(3-trifluoromethylphenylmethyl)-5H-indolo[2,3a]pyrrolo[3,4c]-carbazole-5,7-(6H)-dione] registered a 50% inhibitory concentration (IC50) in series [1] of 1.2 µM. Moreover, the CC50 at 96 h in series [2] is above 500 µM.

For orientation: IC50 means the concentration needed to halve the response being measured.

The record behind these values is patent US5547976A, “Further indole derivatives with antiviral activity” (Burroughs Wellcome Co., priority 1992, dated 1996).
